From PubChem BioAssay AID2060513 (Molecular Pharmacology Branch, DTP, NCI, 2025)
Values joined by “and” are separate entries in the source; they are usually repeats but may differ in a detail not shown here. Equal values may be shown once.

Tested on: 299254-011-R-J1-PDC complex spheroids viability
Test: Anticancer human tumor 299254-011-R-J1-PDC patient-derived melanoma cell line growth inhibition [GQUAD]
Conditions: for viability, T/C: stronger effect = lower value; active = viability on the fitted dose curve at most 10% of control; inactive = the rest
From the text: DNA G-quadruplex Stabilizer Agents in Combinations in Complex Spheroids
A high-throughput screen of multi-cell type tumor spheroids was designed to identify active combinations of DNA G-quadruplex stabilizer agents and targeted small molecules. Complex spheroids include a stromal component modeled by human endothelial cells (HUVEC) and fibroblasts modeled by human mesenchymal stem cells (MSCs). The concentration ranges selected for each drug and investigational agent were based upon clinically achievable concentrations if the clinical Cmax of the agent was known.
Compounds. The drugs and investigational agents: pidnarulex (CX-5461; NSC782164), APTO-253 (NSC789042), BRACO-19 (NSC847499), peposertib (NSC802822), ceralasertib (NSC780249), elimusertib (NSC800525), camonsertib (NSC841442), AZD-1390 (NSC803789), olaparib (NSC753686), talazoparib (NSC767125), ART-558 (NSC835418), sotorasib (NSC818433), MRTX-1133 (NSC836407), SN-38 (NSC673596), topotecan (NSC609699), etoposide (NSC141540), doxorubicin (NSC123127), gemcitabine (NSC613327), 5-fluorouracil (NSC19893), paclitaxel (NSC125973), vemurafenib (NSC761431), panobinostat (NSC761190), R-306465 (JNJ-16241199; NSC773264), adavosertib (NSC754352), TP-3654 (NSC805149), carboplatin (NSC241240), KSQ-4279 (NSC840948), and staurosporine (NSC755774) were obtained from the National Cancer Institute (NCI) Developmental Therapeutics Program Chemical Repository (34). The FDA-approved anticancer drug set is available from the NCI Developmental Therapeutics Program. […] The stock solutions were prepared in dimethyl sulfoxide (DMSO, Sigma-Aldrich, St. Louis, MO, cat. D2650) at 800-fold the tested concentration and stored at -70 degrees C prior to their use. All drugs and investigational agents were tested over a range starting from a high concentration at or near the clinical Cmax and decreasing in half-log increments. If the clinical Cmax for an agent had not been determined, the highest concentration tested was 10 microM.
2.3 Cell Culture. All cells were maintained in an incubator at 37 degrees C and 5% CO2 with 95% humidity. The PDC lines were cultured according to standard operating procedures established by the NCI PDMR. All PDCs were thawed and cultured in Matrigel-coated flasks prepared with a working solution of 1X Ham's F-12 nutrient mix, without supplementation (Invitrogen, cat. 11765054), 100 U/mL penicillin-streptomycin (Invitrogen, cat. 15140122), and 2.5% Matrigel (Corning Inc., cat. 354248) for the first three passages. The 857933-349-R-J2-PDC line was cultured in 6C/Colon 1B media, which includes advanced DMEM/F-12 (Thermo Fisher Scientific, cat. 12634028), 10 mM HEPES (Thermo Fisher Scientific, cat. 15630080), 1X GlutaMAX supplement (Thermo Fisher Scientific, cat. 35050061), 0.1 mg/mL primocin (InvivoGen, cat. ant-pm-2), 10% defined fetal bovine serum, heat inactivated (HyClone Laboratories Inc., cat. SH30070.03HI), 50% L-WRN conditioned media (ATCC, cat. CRL-3276), 1.25 mM N-Acetyl-L-cysteine (Sigma-Aldrich, cat. A9165), 10 mM nicotinamide (Sigma-Aldrich, cat. N0636), 1X B-27 supplement (Thermo Fisher Scientific, cat. 17504044), 1X N-2 supplement (Thermo Fisher Scientific, cat. 17502048), 10 microM Y-27632 dihydrochloride (Tocris Bioscience, cat. 1254), and 50 ng/mL human EGF recombinant protein (Thermo Fisher Scientific, cat. PHG0311). The 485176-168-R4-J1-PDC line was cultured in Panc media, which includes all 6C/Colon 1B media components plus 100 ng/mL human FGF-10 (Thermo Fisher Scientific, cat. 100-26), 500 nM SB-431542 (Selleckchem, cat. S1067), and gastrin (Tocris, cat. 3006).
[…]

[1] = curve of first compound, second compound 0.0316 µM
[2] = curve of first compound, second compound 0.1 µM
[3] = curve of first compound, second compound 0.316 µM
[4] = curve of first compound, second compound 1 µM
[5] = curve of first compound, second compound 3.16 µM
[6] = curve of first compound, second compound 10 µM
[7] = second compound 0.0316 µM, first compound 0.0316 µM
[8] = second compound 0.0316 µM, first compound 0.316 µM
[9] = second compound 0.1 µM, first compound 0.0316 µM
[10] = second compound 0.1 µM, first compound 0.316 µM
[11] = second compound 0.316 µM, first compound 0.0316 µM
[12] = second compound 0.316 µM, first compound 0.316 µM
[13] = second compound 1 µM, first compound 0.0316 µM
[14] = second compound 1 µM, first compound 0.316 µM
[15] = second compound 3.16 µM, first compound 0.0316 µM
[16] = second compound 3.16 µM, first compound 0.316 µM
[17] = second compound 10 µM, first compound 0.0316 µM
[18] = second compound 10 µM, first compound 0.316 µM
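Also: spheroids exposed to the agents for seven days before readout.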
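For viability, T/C in this document: percent viability relative to DMSO vehicle control wells = 100%.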

CN(C)c1ccc(Nc2c3ccc(NC(=O)CCN4CCCC4)cc3nc3cc(NC(=O)CCN4CCCC4)ccc23)cc1
> 10000 nM: IC50 (compound alone, run of 02/26/2024)
inactive: viability, T/C (compound 0.0316 µM) 95.2% [middle of 12 runs] | viability, T/C (compound 0.316 µM) 95.5% [middle of 12 runs] | viability, T/C (compound 3.16 µM) 106% [middle of 12 runs] | viability, T/C (compound 10 µM) 98.3% [middle of 12 runs]

CCc1c2c(nc3ccc(O)cc13)-c1cc3c(c(=O)n1C2)COC(=O)[C@]3(O)CC
> 316 nM: IC50 (curve of compound)
inactive: viability, T/C (compound 0.000999 µM) 94.3% and 102% and 120% | viability, T/C (compound 0.00316 µM) 83.9% and 104% and 97.4% | viability, T/C (compound 0.00999 µM) 87.7% and 72.2% and 92.2% | viability, T/C (compound 0.0316 µM) 64.8% and 104% and 70.9% | viability, T/C (compound 0.0999 µM) 80% and 86.2% and 77.4% | viability, T/C (compound 0.316 µM) 89.8% and 84.2% and 73.6%

Cc1[nH]c2ccccc2c1CCNCc1ccc(/C=C/C(=O)NO)cc1 + Cc1[nH]c2ccc(F)cc2c1-c1nc2c3cccnc3c3ncccc3c2[nH]1
inactive: viability, T/C (second compound 0.0316 µM, first compound 0.000999 µM) 95.9% | viability, T/C (second compound 0.0316 µM, first compound 0.00316 µM) 81.8% | viability, T/C (second compound 0.0316 µM, first compound 0.00999 µM) 92.5% | viability, T/C [7] 81.3% | viability, T/C (second compound 0.0316 µM, first compound 0.0999 µM) 56.3% | viability, T/C [8] 21.5% | viability, T/C (second compound 0.1 µM, first compound 0.000999 µM) 95.3% | viability, T/C (second compound 0.1 µM, first compound 0.00316 µM) 119% | viability, T/C (second compound 0.1 µM, first compound 0.00999 µM) 81.8% | viability, T/C [9] 71.1% | viability, T/C (second compound 0.1 µM, first compound 0.0999 µM) 64.5% | viability, T/C [10] 22% | viability, T/C (second compound 0.316 µM, first compound 0.000999 µM) 88.1% | viability, T/C (second compound 0.316 µM, first compound 0.00316 µM) 99.4% | viability, T/C (second compound 0.316 µM, first compound 0.00999 µM) 95.8% | viability, T/C [11] 77.6% | viability, T/C (second compound 0.316 µM, first compound 0.0999 µM) 86.3% | viability, T/C [12] 25.5% | viability, T/C (second compound 1 µM, first compound 0.000999 µM) 96.1% | viability, T/C (second compound 1 µM, first compound 0.00316 µM) 87.4% | viability, T/C (second compound 1 µM, first compound 0.00999 µM) 93.7% | viability, T/C [13] 89% | viability, T/C (second compound 1 µM, first compound 0.0999 µM) 81.8% | viability, T/C [14] 23.6% | viability, T/C (second compound 3.16 µM, first compound 0.000999 µM) 93.8% | viability, T/C (second compound 3.16 µM, first compound 0.00316 µM) 79.2% | viability, T/C (second compound 3.16 µM, first compound 0.00999 µM) 86.6% | viability, T/C [15] 85.8% | viability, T/C (second compound 3.16 µM, first compound 0.0999 µM) 74.8% | viability, T/C [16] 26.7% | viability, T/C (second compound 10 µM, first compound 0.000999 µM) 78.2% | viability, T/C (second compound 10 µM, first compound 0.00316 µM) 105% | viability, T/C (second compound 10 µM, first compound 0.00999 µM) 94.6% | viability, T/C [17] 84.1% | viability, T/C (second compound 10 µM, first compound 0.0999 µM) 74.8% | viability, T/C [18] 17.9%
123 nM: IC50 [1]
181 nM: IC50 [5]
187 nM: IC50 [4]
163 nM: IC50 [6]
128 nM: IC50 [2]
198 nM: IC50 [3]

Cc1cccc(N(C)C(=O)C2C(O)CCN2c2nc(C)cc(C(F)(F)F)c2C#N)c1 (stereo not drawn)
> 10000 nM: IC50 (curve of compound)
inactive: viability, T/C (compound 0.0316 µM) 96.8% and 97.5% and 104% | viability, T/C (compound 0.1 µM) 96.3% and 100% and 97.4% | viability, T/C (compound 0.316 µM) 99.6% and 98.6% and 93.5% | viability, T/C (compound 1 µM) 96.4% and 89.9% and 93.7% | viability, T/C (compound 3.16 µM) 103% and 83.6% and 97% | viability, T/C (compound 10 µM) 79.5% and 81.2% and 102%

Cc1cnc(CNC(=O)c2c(=O)c3ccc(N4CCCN(C)CC4)nc3n3c2sc2ccccc23)cn1
inactive: viability, T/C (compound 0.316 µM) 100% [middle of 12 runs]

CC1COCCN1c1cc(-c2ccnn2C)c2ccnc(-c3ccn[nH]3)c2n1 (stereo not drawn)
122 nM and 186 nM and 137 nM: IC50 (curve of compound)
inactive: viability, T/C (compound 0.0316 µM) 91.4% and 103% and 81.2% | viability, T/C (compound 0.1 µM) 51.7% and 66.5% and 56.5% | viability, T/C (compound 0.316 µM) 36.6% and 36.5% and 32.7% | viability, T/C (compound 1 µM) 17.9% and 19.7% and 18.7% | viability, T/C (compound 3.16 µM) 22.7% and 13.6% and 13.7% | viability, T/C (compound 10 µM) 11.9% and 15.1% and 13.6%

O=c1[nH]cc(F)c(=O)[nH]1
> 10000 nM: IC50 (curve of compound)
inactive: viability, T/C (compound 0.0316 µM) 117% and 81.7% and 100% | viability, T/C (compound 0.1 µM) 110% and 105% and 96.5% | viability, T/C (compound 0.316 µM) 114% and 113% and 103% | viability, T/C (compound 1 µM) 103% and 86.2% and 122% | viability, T/C (compound 3.16 µM) 114% and 113% and 83.2% | viability, T/C (compound 10 µM) 103% and 85.3% and 87.8%

CC(=O)O[C@H]1C(=O)[C@@]2(C)[C@H]([C@H](OC(=O)c3ccccc3)[C@]3(O)C[C@H](OC(=O)[C@H](O)[C@@H](NC(=O)c4ccccc4)c4ccccc4)C(C)=C1C3(C)C)[C@]1(OC(C)=O)CO[C@@H]1C[C@@H]2O + CN(C)c1ccc(Nc2c3ccc(NC(=O)CCN4CCCC4)cc3nc3cc(NC(=O)CCN4CCCC4)ccc23)cc1
461 nM: IC50 [1]
524 nM: IC50 [6]
inactive: viability, T/C [7] 73.9% | viability, T/C (second compound 0.0316 µM, first compound 0.1 µM) 84.6% | viability, T/C [8] 60.9% | viability, T/C (second compound 0.0316 µM, first compound 1 µM) 26.3% | viability, T/C (second compound 0.0316 µM, first compound 3.16 µM) 19% | viability, T/C (second compound 0.0316 µM, first compound 10 µM) 17.5% | viability, T/C [9] 83.8% | viability, T/C (second compound 0.1 µM, first compound 0.1 µM) 87.4% | viability, T/C [10] 51.9% | viability, T/C (second compound 0.1 µM, first compound 1 µM) 23.7% | viability, T/C (second compound 0.1 µM, first compound 3.16 µM) 14.5% | viability, T/C (second compound 0.1 µM, first compound 10 µM) 11.2% | viability, T/C [11] 81.5% | viability, T/C (second compound 0.316 µM, first compound 0.1 µM) 96% | viability, T/C [12] 44% | viability, T/C (second compound 0.316 µM, first compound 1 µM) 37.1% | viability, T/C (second compound 0.316 µM, first compound 3.16 µM) 22.6% | viability, T/C (second compound 0.316 µM, first compound 10 µM) 16.4% | viability, T/C [13] 93.8% | viability, T/C (second compound 1 µM, first compound 0.1 µM) 78% | viability, T/C [14] 49.8% | viability, T/C (second compound 1 µM, first compound 1 µM) 28.6% | viability, T/C (second compound 1 µM, first compound 3.16 µM) 19.1% | viability, T/C (second compound 1 µM, first compound 10 µM) 17.7% | viability, T/C [15] 89.1% | viability, T/C (second compound 3.16 µM, first compound 0.1 µM) 83.8% | viability, T/C [16] 60.6% | viability, T/C (second compound 3.16 µM, first compound 1 µM) 32.2% | viability, T/C (second compound 3.16 µM, first compound 3.16 µM) 19.1% | viability, T/C (second compound 3.16 µM, first compound 10 µM) 16.4% | viability, T/C [17] 83.3% | viability, T/C (second compound 10 µM, first compound 0.1 µM) 84.3% | viability, T/C [18] 62.7% | viability, T/C (second compound 10 µM, first compound 1 µM) 33% | viability, T/C (second compound 10 µM, first compound 3.16 µM) 17.4% | viability, T/C (second compound 10 µM, first compound 10 µM) 15.1%
364 nM: IC50 [2]
316 nM: IC50 [4]
271 nM: IC50 [3]
489 nM: IC50 [5]
